Tests used:
Type in all cases: physicochemical
[1] = Cyclic voltammetry in N2 purged 0.1 M NaCl aqueous solutions; conditions: 1 mM
Method: Cyclic voltammetry experiments were carried out at 25° C. in N2 purged 0.1 M NaCl aqueous solutions with a Metrohm Eco Chemie Autolab PGSTAT12 potentiostat, working on GPES 4.9 software. A three-electrode configuration was used with a 3 mm or 1.6 mm glassy carbon working electrode, a platinum counter electrode, and RE-5B Ag/AgCl BASI reference electrode. The glassy carbon electrode was polished before each measurement using a 0.05 μm alumina-H2O slurry on a polishing cloth. CV was performed at 1 mM concentrations of the respective compound using a scan rate of 20 mV s^−1.

[2] = EPR and CV modelling studies of redox equilibria (comproportionation, π-dimerisation); conditions: for Kc from CV: comproportionation equilibrium constant from CV curve fitting; for Kd: equilibrium constant of π-dimerisation of singly reduced form, estimated at 50% SOC; for Kc, obs from EPR: observed comproportionation equilibrium constant, fit of spin counting radical fraction
Method: An analysis of compounds 10, 11, and 13 associated redox equilibria was carried out. Expressing the two single electron reductions as a comproportionation equilibrium with an equilibrium constant of comproportionation, Kc, an equation for radical fraction as a function of battery SOC was obtained.
The difference between redox events is related to the comproportionation equilibrium constant Kc by:
For the compounds comproportionation equilibrium:
fits to experimental radical concentration data were obtained by:
Where n is the number of electrons that have been removed from the system, starting from 100% SOC and x is the fraction of radicals.
For π-dimerisation equilibria, Kd values were estimated as follows. At 50% SOC, 1 electron equivalent of the starting concentration of viologen, V0, has been added to create reduced species, thus giving the previous result:
As the initial concentration (V0), Kc and the radical concentration (V^3+·) at this state of charge is known, the dimerisation constant can be calculated with:
This equation was used to fit experimental radical fraction data obtained by the EPR-based method of spin counting, from which the observed comproportionation equilibrium constant Kc,obs was extracted. Upon fitting, Kc,obs values of 0.75, 0.021 and 0.0021 were found for 10, 11, and 13, respectively (Table 2).
The equation was also used for CV curve fitting, from which much better agreement with experimental data was obtained. Relating the difference in first and second redox events obtained by CV curve fitting to Kc, ‘true’ Kc values could be estimated and compared to Kc,obs values. Respective Ko values for 10, 11, and 13 were 3.2×10^5, 1.3 and 2.9 (see Table 2)—substantially higher than the Kc,obs values. […] The strongest candidates for these are dimerisation equilibria.

[3] = In situ DOSY NMR of flowing electrolyte at various SOCs; conditions: diffusivity
Method: Pseudo-2D NMR experiments were performed on the flowing electrolyte solution by direct excitation with a 90° radiofrequency pulse. Each NMR spectrum is acquired by collecting eight free induction decays with a recycle delay of 15 s. The pulse width for a 90° pulse was 27 μs at 30 W. All spectra were referenced to the water chemical shift at 4.79 ppm. NMR data were processed using TopSpin 3.6.3 (Bruker). EPR data were processed using EasySpin version 5.2.30. Electrochemical data were processed using EC-lab 11.36 (BioLogic).
The flow was stopped during the acquisition period (12 min) to carry out the DOSY NMR.
In situ DOSY NMR experiments carried out for 10, 11, and 13 at 0%, 50%, and 100% SOC (Table 1).

[4] = Rates of electron transfer
[5] = Additional cyclic voltammetry under nitrogen and under air; conditions: 1 mM, 0.1 M NaCl
Method: Cyclic voltammetry experiments were carried out for aqueous solutions of compound 20 and 10 at 25° C. and a concentration of 1 mM in 0.1 M NaCl with a Metrohm Eco Chemie Autolab PGSTAT12 potentiostat, working on GPES 4.9 software. Where the CV was carried out under nitrogen the solution was purged with nitrogen. A three-electrode configuration was used with a 3 mm glassy carbon working electrode, a platinum counter electrode, and RE-5B Ag/AgCl BASI reference electrode. The glassy carbon electrode was polished before each measurement using a 0.05 μm alumina-H2O slurry on a polishing cloth. CV was performed using a scan rate of 20 mV s^−1.

C[N+](C)(C)CCC[n+]1ccc(-c2ccc(-c3ccc(-c4cc[n+](CCC[N+](C)(C)C)cc4)s3)s2)cc1 [Compound 18]
redox reversibility by cyclic voltammetry [1]: reversible redox processes

C[N+](C)(C)CCC[n+]1ccc(-c2cc[n+](CCC[N+](C)(C)C)cc2)cc1 [Compound 10]
redox reversibility by cyclic voltammetry [1]: reversible redox processes
reversible potential, first reduction ([1]; vs SHE, 25° C., 20 mV s^−1): −0.35 V
reversible potential, second reduction ([1]; vs SHE, 25° C., 20 mV s^−1): −0.68 V
average Kc extracted from the radical concentration [2]: 0.7
Kc from CV [2]: 3.2×10^5
Kd [2]: 0.28 mM⁻¹
Kc, obs from EPR [2]: 0.75
D at 0% SOC [3]: 3.6 ± 0.1 ×10^−10 m^2 s^−1
D at 50% SOC [3]: 3.6 ± 0.2 ×10^−10 m^2 s^−1
D at 100% SOC [3]: 3.4 ± 0.1 ×10^−10 m^2 s^−1

C[N+](C)(C)CCC[n+]1ccc(-c2c3ccccc3c(-c3cc[n+](CCC[N+](C)(C)C)cc3)c3ccccc23)cc1 [Compound 15]
redox reversibility by cyclic voltammetry [1]: electrochemically irreversible

C[N+](C)(C)CCC[n+]1ccc(-c2ccc(-c3cc[n+](CCC[N+](C)(C)C)cc3)cc2)cc1 [Compound 11]
redox reversibility by cyclic voltammetry [1]: reversible redox processes
average Kc extracted from the radical concentration [2]: 0.2
Kc from CV [2]: 1.3
Kd [2]: 11 mM⁻¹
Kc, obs from EPR [2]: 0.021
D at 0% SOC [3]: 3.1 ± 0.1 ×10^−10 m^2 s^−1
D at 50% SOC [3]: 2.4 ± 0.2 ×10^−10 m^2 s^−1
D at 100% SOC [3]: 1.6 ± 0.1 ×10^−10 m^2 s^−1
rate of electron transfer k0 [4]: 0.0198 cm/s

C[N+](C)(C)CCC[n+]1ccc(-c2ccc(-c3cc[n+](CCC[N+](C)(C)C)cc3)c3ccccc23)cc1 [Compound 12]
redox reversibility by cyclic voltammetry [1]: reversible redox processes

C[N+](C)(C)c1ccc(-[n+]2ccc(-c3cc[n+](-c4ccc([N+](C)(C)C)cc4)cc3)cc2)cc1 [Compound 20]
tolerance to oxygen (voltammogram under nitrogen vs under air) [5]: highly tolerant to the presence of oxygen
reversible reduction potential, first ([5]; vs SHE, 25° C., 20 mV s^−1): −0.147 V
reversible reduction potential, second ([5]; vs SHE, 25° C., 20 mV s^−1): −0.386 V

C[N+](C)(C)CCC[n+]1ccc(-c2cccc(-c3cc[n+](CCC[N+](C)(C)C)cc3)n2)cc1 [Compound 19]
redox reversibility by cyclic voltammetry [1]: does not have a reversible potential

C[N+](C)(C)CCC[n+]1ccc(-c2ccc3ccc(-c4cc[n+](CCC[N+](C)(C)C)cc4)cc3c2)cc1 [Compound 14]
redox reversibility by cyclic voltammetry [1]: does not have a reversible potential

C[N+](C)(C)CCC[n+]1ccc(-c2ccc(-c3cc[n+](CCC[N+](C)(C)C)cc3)s2)cc1 [Compound 17]
redox reversibility by cyclic voltammetry [1]: reversible redox processes
reversible potential, second reduction ([1]; vs SHE, 25° C., 20 mV s^−1): −0.67 V
rate of electron transfer k0 [4]: 0.0028 cm/s

C[N+](C)(C)CCC[n+]1ccc(-c2ccc(-c3ccc(-c4cc[n+](CCC[N+](C)(C)C)cc4)cc3)cc2)cc1 [Compound 16]
redox reversibility by cyclic voltammetry [1]: electrochemically irreversible

C[N+](C)(C)CCC[n+]1ccc(-c2ccc3cc(-c4cc[n+](CCC[N+](C)(C)C)cc4)ccc3c2)cc1 [Compound 13]
redox reversibility by cyclic voltammetry [1]: reversible redox processes
average Kc extracted from the radical concentration [2]: 0.002
Kc from CV [2]: 2.9
Kd [2]: 76 mM⁻¹
Kc, obs from EPR [2]: 0.0021
D at 0% SOC [3]: 2.8 ± 0.1 ×10^−10 m^2 s^−1
D at 50% SOC [3]: 1.9 ± 0.2 ×10^−10 m^2 s^−1
D at 100% SOC [3]: 2.1 ± 0.5 ×10^−10 m^2 s^−1

O=O [Compound O2, dioxygen]
rate of electron transfer k0 [4]: 0.00084 cm/s
